ChEMBL document CHEMBL5465560, “Selectivity Literature for EUbOPEN Chemogenomic Library” (2024)

Tests used:
[1] = target: Serine/threonine-protein kinase N2 (Homo sapiens, UniProt Q16513); conditions: at 10 µM
[2] = target: T1, Serine/threonine-protein kinase 17B (Homo sapiens) (UniProt O94768); experiment: Selectivity interaction (KinomeScan (DiscoverX)) EUB0000092b STK17B; conditions: at 10 µM
T1 sequence (whole entry): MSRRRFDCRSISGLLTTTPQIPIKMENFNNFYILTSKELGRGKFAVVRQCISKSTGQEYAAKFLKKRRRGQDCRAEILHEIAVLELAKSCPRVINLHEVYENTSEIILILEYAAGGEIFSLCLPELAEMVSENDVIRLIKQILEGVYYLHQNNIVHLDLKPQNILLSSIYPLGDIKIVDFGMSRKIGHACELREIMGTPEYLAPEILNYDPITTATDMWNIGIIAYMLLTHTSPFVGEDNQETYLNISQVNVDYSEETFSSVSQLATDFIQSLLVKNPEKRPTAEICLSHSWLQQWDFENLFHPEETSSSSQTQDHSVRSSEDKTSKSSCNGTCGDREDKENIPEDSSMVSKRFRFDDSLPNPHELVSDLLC

[3] = target: Hepatocyte growth factor-like protein (Homo sapiens) (UniProt P26927); conditions: at 1 µM
[4] = target: ALK tyrosine kinase receptor (Homo sapiens, UniProt Q9UM73); conditions: at 10 µM
[5] = target: T2, Serine/threonine-protein kinase D3 (Homo sapiens) (UniProt O94806); experiment: Selectivity interaction (Kinase panel (Invitrogen)) EUB0000639a PRKD3; conditions: at 200 nM
T2 sequence (whole entry): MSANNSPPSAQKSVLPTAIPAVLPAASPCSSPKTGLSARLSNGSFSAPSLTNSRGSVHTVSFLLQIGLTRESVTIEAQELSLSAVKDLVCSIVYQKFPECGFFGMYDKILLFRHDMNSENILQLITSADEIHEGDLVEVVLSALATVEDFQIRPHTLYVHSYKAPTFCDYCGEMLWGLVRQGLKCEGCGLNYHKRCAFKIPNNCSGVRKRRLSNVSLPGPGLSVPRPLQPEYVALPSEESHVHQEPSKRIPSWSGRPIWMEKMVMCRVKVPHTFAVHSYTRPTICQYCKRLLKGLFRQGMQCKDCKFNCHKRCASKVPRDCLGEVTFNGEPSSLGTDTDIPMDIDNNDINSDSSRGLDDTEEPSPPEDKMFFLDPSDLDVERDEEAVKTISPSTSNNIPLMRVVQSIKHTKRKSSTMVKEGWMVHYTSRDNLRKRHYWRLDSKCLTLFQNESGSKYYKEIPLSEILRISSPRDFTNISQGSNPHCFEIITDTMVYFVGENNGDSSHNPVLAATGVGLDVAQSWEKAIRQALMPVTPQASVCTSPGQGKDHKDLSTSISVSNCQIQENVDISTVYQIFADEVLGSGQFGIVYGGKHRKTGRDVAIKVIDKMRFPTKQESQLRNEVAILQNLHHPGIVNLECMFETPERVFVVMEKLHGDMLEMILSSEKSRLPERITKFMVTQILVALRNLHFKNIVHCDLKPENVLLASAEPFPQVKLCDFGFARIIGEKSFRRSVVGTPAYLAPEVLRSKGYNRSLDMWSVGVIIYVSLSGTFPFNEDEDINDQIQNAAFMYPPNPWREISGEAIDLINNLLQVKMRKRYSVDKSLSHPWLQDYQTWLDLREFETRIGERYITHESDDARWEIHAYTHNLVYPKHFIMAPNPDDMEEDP

[6] = target: RAC-beta serine/threonine-protein kinase (Homo sapiens) (UniProt P31751); experiment: Selectivity interaction (KinomeScan (DiscoverX)) EUB0000595a AKT2; conditions: at 10 µM
[7] = target: T3, Serine/threonine-protein kinase TBK1 (Homo sapiens) (UniProt Q9UHD2); experiment: Selectivity interaction (Kinase screening (Nanosyn)) EUB0000604a TBK1
T3 sequence (whole entry): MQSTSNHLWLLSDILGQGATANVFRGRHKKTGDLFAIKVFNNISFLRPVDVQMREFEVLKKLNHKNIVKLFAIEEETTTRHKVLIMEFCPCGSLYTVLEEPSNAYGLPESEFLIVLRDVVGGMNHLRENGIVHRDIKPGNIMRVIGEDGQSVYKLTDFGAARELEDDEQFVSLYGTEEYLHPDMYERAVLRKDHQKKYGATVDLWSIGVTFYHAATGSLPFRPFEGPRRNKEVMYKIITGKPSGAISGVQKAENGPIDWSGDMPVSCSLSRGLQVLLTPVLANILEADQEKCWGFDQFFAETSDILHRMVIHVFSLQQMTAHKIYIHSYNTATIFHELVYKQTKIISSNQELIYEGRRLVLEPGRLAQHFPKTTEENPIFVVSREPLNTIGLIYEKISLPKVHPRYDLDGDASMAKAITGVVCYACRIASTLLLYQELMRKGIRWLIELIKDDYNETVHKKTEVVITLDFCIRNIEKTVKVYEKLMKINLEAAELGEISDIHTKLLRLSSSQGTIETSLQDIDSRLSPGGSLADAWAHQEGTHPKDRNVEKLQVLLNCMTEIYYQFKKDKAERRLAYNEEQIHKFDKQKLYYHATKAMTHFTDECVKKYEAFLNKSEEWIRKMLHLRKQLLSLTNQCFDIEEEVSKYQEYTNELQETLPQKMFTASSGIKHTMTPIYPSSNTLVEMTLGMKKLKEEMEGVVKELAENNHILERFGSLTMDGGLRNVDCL

[8] = target: Rho-associated protein kinase 2 (Homo sapiens, UniProt O75116); experiment: Selectivity interaction (ActivX KiNativ screen (ex vivo kinase selectivity in human PBMCs)) EUB0001619a ROCK2; type: cell-based; conditions: PBMC, at 1 µM
Rho-associated protein kinase 2, sequence (O75116 whole entry, looked up): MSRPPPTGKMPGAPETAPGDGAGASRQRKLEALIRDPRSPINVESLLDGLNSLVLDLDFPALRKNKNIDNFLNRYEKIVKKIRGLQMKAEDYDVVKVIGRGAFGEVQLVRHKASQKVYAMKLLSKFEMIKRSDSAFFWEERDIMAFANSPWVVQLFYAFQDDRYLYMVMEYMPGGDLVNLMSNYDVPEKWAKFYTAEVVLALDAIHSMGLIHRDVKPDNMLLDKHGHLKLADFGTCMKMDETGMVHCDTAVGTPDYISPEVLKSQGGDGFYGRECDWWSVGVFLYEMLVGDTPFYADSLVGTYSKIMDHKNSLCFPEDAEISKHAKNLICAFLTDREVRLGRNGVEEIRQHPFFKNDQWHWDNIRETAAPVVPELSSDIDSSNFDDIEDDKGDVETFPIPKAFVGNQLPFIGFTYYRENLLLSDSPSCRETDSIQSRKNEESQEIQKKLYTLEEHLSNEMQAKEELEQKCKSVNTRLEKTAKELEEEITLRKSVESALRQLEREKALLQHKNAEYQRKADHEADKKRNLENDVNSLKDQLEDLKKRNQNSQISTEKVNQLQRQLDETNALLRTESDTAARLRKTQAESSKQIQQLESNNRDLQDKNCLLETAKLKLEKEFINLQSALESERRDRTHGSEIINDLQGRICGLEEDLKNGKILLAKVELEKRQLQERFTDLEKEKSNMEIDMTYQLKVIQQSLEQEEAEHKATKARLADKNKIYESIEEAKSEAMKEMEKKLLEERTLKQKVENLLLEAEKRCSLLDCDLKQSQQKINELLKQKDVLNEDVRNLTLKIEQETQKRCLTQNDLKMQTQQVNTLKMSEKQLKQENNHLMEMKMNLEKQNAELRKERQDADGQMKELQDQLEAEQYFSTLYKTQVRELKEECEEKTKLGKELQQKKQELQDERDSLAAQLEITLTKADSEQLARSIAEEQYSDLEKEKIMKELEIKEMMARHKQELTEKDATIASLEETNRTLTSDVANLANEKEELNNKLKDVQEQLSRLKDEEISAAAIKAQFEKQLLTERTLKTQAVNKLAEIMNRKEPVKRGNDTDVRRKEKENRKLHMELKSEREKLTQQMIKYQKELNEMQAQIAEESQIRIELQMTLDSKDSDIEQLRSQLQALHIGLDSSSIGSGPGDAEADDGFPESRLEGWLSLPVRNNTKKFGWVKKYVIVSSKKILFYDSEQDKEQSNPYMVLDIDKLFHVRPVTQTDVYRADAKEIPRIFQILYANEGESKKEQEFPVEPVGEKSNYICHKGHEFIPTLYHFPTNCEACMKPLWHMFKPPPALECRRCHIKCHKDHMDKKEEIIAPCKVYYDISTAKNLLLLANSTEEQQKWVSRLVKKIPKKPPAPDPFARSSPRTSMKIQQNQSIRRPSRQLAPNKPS

RAC-beta serine/threonine-protein kinase (Homo sapiens), sequence (P31751 whole entry): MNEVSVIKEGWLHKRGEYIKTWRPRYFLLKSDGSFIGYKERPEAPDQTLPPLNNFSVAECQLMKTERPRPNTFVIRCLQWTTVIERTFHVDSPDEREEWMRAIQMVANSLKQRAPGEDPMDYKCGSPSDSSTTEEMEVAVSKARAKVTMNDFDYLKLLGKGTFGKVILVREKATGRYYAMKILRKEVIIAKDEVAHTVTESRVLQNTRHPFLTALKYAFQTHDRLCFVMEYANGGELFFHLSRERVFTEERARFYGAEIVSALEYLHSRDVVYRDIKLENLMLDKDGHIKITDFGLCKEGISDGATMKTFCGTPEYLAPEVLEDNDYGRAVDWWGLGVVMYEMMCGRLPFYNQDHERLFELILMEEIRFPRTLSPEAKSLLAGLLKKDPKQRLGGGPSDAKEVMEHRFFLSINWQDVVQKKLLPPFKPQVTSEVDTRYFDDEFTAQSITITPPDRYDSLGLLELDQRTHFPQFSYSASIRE
ALK tyrosine kinase receptor, sequence (Q9UM73 19-1620 limits assumed): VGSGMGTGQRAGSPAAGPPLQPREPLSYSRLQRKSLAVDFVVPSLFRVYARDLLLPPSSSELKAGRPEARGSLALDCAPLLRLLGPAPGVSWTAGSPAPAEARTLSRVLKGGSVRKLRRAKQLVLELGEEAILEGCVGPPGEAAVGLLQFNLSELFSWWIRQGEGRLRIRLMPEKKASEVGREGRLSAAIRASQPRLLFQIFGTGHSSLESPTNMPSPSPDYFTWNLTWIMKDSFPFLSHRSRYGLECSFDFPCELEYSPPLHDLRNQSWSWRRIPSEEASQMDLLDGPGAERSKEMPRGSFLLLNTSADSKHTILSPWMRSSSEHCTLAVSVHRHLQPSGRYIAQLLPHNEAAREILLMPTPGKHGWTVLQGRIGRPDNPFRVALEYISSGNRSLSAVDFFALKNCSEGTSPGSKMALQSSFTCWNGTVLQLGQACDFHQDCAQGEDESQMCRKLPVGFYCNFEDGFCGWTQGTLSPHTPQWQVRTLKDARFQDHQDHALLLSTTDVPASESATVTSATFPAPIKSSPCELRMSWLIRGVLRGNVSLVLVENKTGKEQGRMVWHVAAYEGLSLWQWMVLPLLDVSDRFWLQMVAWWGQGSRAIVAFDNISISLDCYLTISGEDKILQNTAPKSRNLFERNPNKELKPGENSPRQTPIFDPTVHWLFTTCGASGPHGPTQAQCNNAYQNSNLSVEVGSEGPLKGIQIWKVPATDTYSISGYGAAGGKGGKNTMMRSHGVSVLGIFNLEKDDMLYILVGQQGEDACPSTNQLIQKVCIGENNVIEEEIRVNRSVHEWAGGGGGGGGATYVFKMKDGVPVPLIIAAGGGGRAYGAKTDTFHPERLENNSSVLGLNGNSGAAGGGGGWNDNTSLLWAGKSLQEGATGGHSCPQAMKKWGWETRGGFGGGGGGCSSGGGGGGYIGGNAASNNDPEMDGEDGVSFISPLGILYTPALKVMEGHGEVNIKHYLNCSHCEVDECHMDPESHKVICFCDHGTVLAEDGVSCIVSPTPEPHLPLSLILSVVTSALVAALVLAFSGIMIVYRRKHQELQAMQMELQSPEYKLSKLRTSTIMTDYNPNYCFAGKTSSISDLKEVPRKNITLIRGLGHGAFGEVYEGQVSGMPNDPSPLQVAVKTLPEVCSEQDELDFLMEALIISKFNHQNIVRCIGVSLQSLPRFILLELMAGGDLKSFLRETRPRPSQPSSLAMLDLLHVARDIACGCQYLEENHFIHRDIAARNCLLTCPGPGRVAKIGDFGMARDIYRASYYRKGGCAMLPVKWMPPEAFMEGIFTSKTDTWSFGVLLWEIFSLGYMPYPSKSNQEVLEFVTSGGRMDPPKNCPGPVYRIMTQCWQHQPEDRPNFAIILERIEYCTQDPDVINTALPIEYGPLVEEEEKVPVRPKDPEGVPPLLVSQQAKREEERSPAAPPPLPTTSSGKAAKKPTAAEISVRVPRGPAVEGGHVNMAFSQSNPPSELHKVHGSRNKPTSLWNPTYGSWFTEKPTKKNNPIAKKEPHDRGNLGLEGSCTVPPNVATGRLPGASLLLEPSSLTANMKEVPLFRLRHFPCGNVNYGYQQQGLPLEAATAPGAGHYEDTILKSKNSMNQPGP
Serine/threonine-protein kinase N2, sequence (Q16513 whole entry, looked up): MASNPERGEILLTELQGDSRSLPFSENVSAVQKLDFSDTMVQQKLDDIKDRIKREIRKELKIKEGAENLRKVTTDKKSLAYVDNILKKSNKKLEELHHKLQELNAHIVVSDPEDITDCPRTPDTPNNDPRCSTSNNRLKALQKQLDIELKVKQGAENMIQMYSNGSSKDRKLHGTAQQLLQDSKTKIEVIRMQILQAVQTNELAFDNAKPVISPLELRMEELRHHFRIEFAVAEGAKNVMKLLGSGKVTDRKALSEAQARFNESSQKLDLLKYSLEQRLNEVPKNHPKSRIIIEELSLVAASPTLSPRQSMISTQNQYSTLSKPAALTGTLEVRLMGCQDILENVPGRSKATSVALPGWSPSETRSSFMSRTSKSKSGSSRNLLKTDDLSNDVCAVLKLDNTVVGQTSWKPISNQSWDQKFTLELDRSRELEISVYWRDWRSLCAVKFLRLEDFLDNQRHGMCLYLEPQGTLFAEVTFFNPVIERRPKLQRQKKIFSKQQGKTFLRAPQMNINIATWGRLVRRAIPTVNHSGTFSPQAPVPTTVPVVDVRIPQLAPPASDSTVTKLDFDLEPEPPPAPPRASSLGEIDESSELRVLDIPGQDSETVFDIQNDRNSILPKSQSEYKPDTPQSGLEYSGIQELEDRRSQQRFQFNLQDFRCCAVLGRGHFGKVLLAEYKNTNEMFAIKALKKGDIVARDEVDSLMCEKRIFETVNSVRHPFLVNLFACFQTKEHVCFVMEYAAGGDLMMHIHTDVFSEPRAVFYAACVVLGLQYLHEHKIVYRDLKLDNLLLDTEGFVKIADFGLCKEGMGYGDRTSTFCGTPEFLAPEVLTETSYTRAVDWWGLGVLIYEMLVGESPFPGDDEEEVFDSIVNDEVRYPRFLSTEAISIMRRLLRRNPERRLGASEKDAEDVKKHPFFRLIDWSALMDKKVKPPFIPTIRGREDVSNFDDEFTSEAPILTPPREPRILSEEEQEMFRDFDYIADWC

`CCN(CC)CCCCNc1ncc2cc(-c3cc(OC)cc(OC)c3)c(NC(=O)NC(C)(C)C)nc2n1` showed a % of control [1] of 100%.

Molecule `CCC(=O)N1CCN(c2ccc(-n3c(=O)ccc4cnc5ccc(-c6cnc7ccccc7c6)cc5c43)cc2C(F)(F)F)CC1` has a % of control [2] of 67%.

For `Cc1ccc(-c2ccc3c(ccc4sc5c(c43)NC[C@@H](C)NC5=O)n2)cn1`, the % of inhibition [3] was 6%.

`Cc1cc([C@@H](C)Nc2ccccc2C(=O)O)c2nc(N3CCOCC3)cc(=O)n2c1` [AZD-6482] gave a % of control [4] of 100%.

`CC[C@@H]1[C@H](F)C(=O)N[C@@H]1COc1nccc2cc(C(N)=O)c(OC)cc12` [ZIMLOVISERTIB] showed a % of inhibition [5] of 10.2%.

Work on `COCC(=O)NC/C=C/c1ccc2ncnc(Nc3ccc(Oc4ccc(C)nc4)c(C)c3)c2c1` [CP-724714] yielded a % of control [6] of 100%.

In the case of `Cc1cnc(Nc2ccc(F)cc2Cl)nc1-c1c[nH]c(C(=O)N[C@H](CO)c2cccc(Cl)c2)c1`, the % of inhibition [7] is reported as 3%.

Molecule `N#Cc1cccc(-c2c[nH]c3ncnc(N4CCOCC4)c23)c1` has a % of inhibition [8] of 2%.
